Assay results taken from ChEMBL document CHEMBL1131789, “Synthesis and anticonvulsant activity of 3-aryl-5H-2,3-benzodiazephine AMPA antagonists” (1999).
Active and inactive are the calls of the source. No cut-off for these calls is given here.

How the values were obtained:
[1] = test system: Mus musculus; assay: Ability to abolish the hindlimb tonic extensor components of a maximal electroshock-induced seizure in vivo; NA means Not active at 10 mg/kg; format: functional, organism-based; parameters: dose 10 mg/kg
[2] = test system: Mus musculus; assay: Ability to abolish the hindlimb tonic extensor components of a maximal electroshock-induced seizure in vivo; format: functional
[3] = test system: Mus musculus; assay: Ability to abolish the hindlimb tonic extensor components of a maximal electroshock-induced seizure in vivo; NA means Not active; format: functional, organism-based
[4] = test system: Mus musculus; assay: Ability to abolish the hindlimb tonic extensor components of a maximal electroshock-induced seizure in vivo at 10 mg/kg; format: functional
[5] = test system: Mus musculus; assay: Ability to abolish the hindlimb tonic extensor components of a maximal electroshock-induced seizure in vivo at 5 mg/kg; None mice protected; format: functional

**Q.** For `C[C@@H]1Cc2cc3c(cc2C(c2ccc(Cl)cc2)=NN1c1ccccn1)OCO3`, which ED50 [1] is on record?
**A.** Its ED50 is “inactive”.

**Q.** `CC(=O)N1N=C(c2ccc(N)cc2)c2cc3c(cc2C[C@H]1C)OCO3` [TALAMPANEL] was tested. Which ED50 [2] did it give?
**A.** The ED50 was 0.48 mg/kg.

**Q.** With `C[C@@H]1Cc2cc3c(cc2C(c2ccc(N)cc2)=NN1c1nncc2ccccc12)OCO3` as the compound, how does the ED50 [2] read?
**A.** Its ED50 is 7.8 mg/kg.

**Q.** Which ED50 [2] does the source give for `C[C@@H]1Cc2cc3c(cc2C(c2ccc(N)cc2)=NN1c1nc2ccccc2[nH]1)OCO3` here?
**A.** The ED50 was 3.2 mg/kg.

**Q.** Which ED50 [3] does the source give for `C[C@@H]1Cc2cc3c(cc2C(c2ccc(N)cc2)=NN1c1ccc2ccccc2n1)OCO3` here?
**A.** Its ED50 is “inactive”.

**Q.** `C[C@@H]1Cc2cc3c(cc2C(c2ccc(N)cc2)=NN1c1ccccn1)OCO3` was tested. Which ED50 [2] did it give?
**A.** The ED50 was 0.76 mg/kg.

**Q.** How did the ED50 [1] turn out when `C[C@@H]1Cc2cc3c(cc2C(c2ccc(I)cc2)=NN1c1ccccn1)OCO3` was run?
**A.** The ED50 was “inactive”.

**Q.** How did the ED50 [1] turn out when `C[C@@H]1Cc2cc3c(cc2C(c2ccc(N)cc2)=NN1c1cccc2ccccc12)OCO3` was run?
**A.** Its ED50 is “inactive”.

**Q.** How did the ED50 [2] turn out when `C[C@@H]1Cc2cc3c(cc2C(c2ccc(N)cc2)=NN1c1ccccc1)OCO3` was run?
**A.** The ED50 was 1.47 mg/kg.

**Q.** For `C[C@@H]1Cc2cc3c(cc2C(c2ccccc2)=NN1c1ccccn1)OCO3`, which ED50 [1] is on record?
**A.** The ED50 was “inactive”.

**Q.** Which ED50 [3] does the source give for `C[C@@H]1Cc2cc3c(cc2C(c2ccc(N)cc2)=NN1c1nccc(C(F)(F)F)n1)OCO3` here?
**A.** Its ED50 is “inactive”.

**Q.** For `COC(=O)c1ccsc1N1N=C(c2ccc(N)cc2)c2cc3c(cc2C[C@H]1C)OCO3`, which Protection [4] is on record?
**A.** The Protection was 40%.

**Q.** How did the ED50 [2] turn out when `C[C@@H]1Cc2cc3c(cc2C(c2ccc(N)cc2)=NN1c1nc2ccccc2s1)OCO3` was run?
**A.** The ED50 was 5 mg/kg.

**Q.** What about the Protection [5] of the same compound?
**A.** Its Protection is 0%.

**Q.** And the Protection [4]?
**A.** Its Protection is 80%.
